Laboratory results taken from patent EP0993454B1, “BENZO(5,6)CYCLOHEPTA(1,2B)PYRIDINE DERIVATIVES USEFUL FOR INHIBITION OF FARNESYL PROTEIN TRANSFERASE” (SCHERING CORPORATION, priority 1997, dated 1998).
pIC50: −log10 of the molar value.

Molecular target: farnesyl protein transferase (Homo sapiens, UniProt P49354+P49356)
Experiment: FPT IC50 (inhibition of farnesyl protein transferase, in vitro enzyme assay)
Type: biochemical
Settings: procedure of WO 95/10516, one collective range stated for the five listed compounds
Experimental: FPT IC50 (inhibition of farnesyl protein transferase, in vitro enzyme assay) and COS Cell IC50 (Cell-Based Assay) were determined following the assay procedures described in WO 95/10516, published April 20, 1995. GGPT IC50 (inhibition of geranylgeranyl protein transferase, in vitro enzyme assay), Cell Mat Assay, and anti-tumor activity (in vivo anti-tumor studies) could be determined by the assay procedures described in WO 95/10516. The disclosure of WO 95/10516 is incorporated herein by reference thereto.

| Structure (SMILES) | pIC50 |
| --- | --- |
| O=C(CC1CCNCC1)N1CCC(C2(O)c3ncc(Br)cc3CCc3cc(Cl)cc(Br)c32)CC1 (centres unmarked) [2 Step A] | 7.38 to 8.70 |
| NC(=O)CN1CCC(CC(=O)N2CCC(C3(O)c4ncc(Br)cc4CCc4cc(Cl)cc(Br)c43)CC2)CC1 (centres unmarked) [Example 3, 4-[2-[4-(3,10-dibromo-8-chloro-6,11-dihydro-11-hydroxy-5H-benzo[5,6]cyclohepta-[1,2-B]pyridin-11-yl)-1-piperidinyl]-2-oxoethyl]-1-piperidineacetamide] | 7.38 to 8.70 |
